Assay results: ChEMBL document CHEMBL3044652, “Synthesis of novel 2-alkyl-4-substituted-amino-pyrazolo[3,4-d]pyrimidines as new leads for anti-bacterial and anti-cancer activity” (2013)

Columns and labels:
Type in all cases: functional
G-361 [1] = assay: Cytotoxicity against Homo sapiens (human) G361 cells assessed as cell growth at 10^-6 M by SRB assay relative to control; conditions: read-out: Activity
Escherichia coli = assay: Antibacterial activity against Escherichia coli NCIM 2803 at 20 ug/ml after 24 hr by agar diffusion method; conditions: NCIM 2803, 24 h, read-out: IZ
G-361 [2] = assay: Cytotoxicity against Homo sapiens (human) G361 cells by SRB assay
G-361 [3] = assay: Cytotoxicity against Homo sapiens (human) G361 cells assessed as cell growth at 10^-5 M by SRB assay relative to control; conditions: read-out: Activity
Staphylococcus aureus = assay: Antibacterial activity against Staphylococcus aureus NCIM 5021 at 20 ug/ml after 24 hr by agar diffusion method; conditions: NCIM 5021, 24 h, read-out: IZ
Bacillus subtilis = assay: Antibacterial activity against Bacillus subtilis NCIM 2545 at 20 ug/ml after 24 hr by agar diffusion method; conditions: NCIM 2545, 24 h, read-out: IZ
G-361 [4] = assay: Cytotoxicity against Homo sapiens (human) G361 cells assessed as cell growth at 10^-7 M by SRB assay relative to control; conditions: read-out: Activity
G-361 [5] = assay: Cytotoxicity against Homo sapiens (human) G361 cells assessed as cell growth at 10^-4 M by SRB assay relative to control; conditions: read-out: Activity
[6] = test system: Staphylococcus epidermidis; assay: Antibacterial activity against Staphylococcus epidermidis NCIM 2493 at 20 ug/ml after 24 hr by agar diffusion method; conditions: NCIM 2493, 24 h, read-out: IZ

| Structure (SMILES) | growth at 1 µM (G-361 [1]) [%] | zone of inhibition at 20 µg/mL (Escherichia coli) [mm] | GI50 (G-361 [2]) [µM] | LC50 (G-361 [2]) [µM] | TGI (G-361 [2]) [µM] | growth at 10 µM (G-361 [3]) [%] | zone of inhibition at 20 µg/mL (Staphylococcus aureus) [mm] | zone of inhibition at 20 µg/mL (Bacillus subtilis) [mm] | growth at 0.1 µM (G-361 [4]) [%] | growth at 100 µM (G-361 [5]) [%] | zone of inhibition at 20 µg/mL [6] [mm] |
| --- | --- | --- | --- | --- | --- | --- | --- | --- | --- | --- | --- |
| Cc1nc(NCc2ccco2)c2cnn(-c3ccccc3)c2n1 | 100 | 13.6 | 39 | > 100 | > 100 | 100 | 12.7 | 12.5 | 100 | 30.1 | 13.3 |
| CCc1nc(NCc2ccco2)c2cnn(-c3ccccc3)c2n1 | 96.5 | 12.7 | 2.04 | > 100 | 32 | 86.3 | 13.3 | 13.6 | 100 | -61 | 13.6 |
| CCCNCc1nc(NCCC)c2cnn(-c3ccccc3)c2n1 | 99.6 | 13.3 | > 100 |  | > 100 | 100 | 13.3 | 13.6 | 100 | 75.1 | 13.3 |
| CCCNc1nc(CC)nc2c1cnn2-c1ccccc1 | 94.7 | 13.6 | 2.2 | > 100 | 37 | 84.7 | 13.3 | 13 | 100 | -34.7 | 13.3 |
| CCc1nc(Nc2ccccc2)c2cnn(-c3ccccc3)c2n1 |  | 13.3 |  |  |  |  | 13.6 | 13.3 |  |  | 13.6 |
| CCCCNc1ncnc2c1cnn2-c1ccccc1 | 90.8 | 13.6 | 2.1 | > 100 | 37 | 43.4 | 13.3 | 13 | 100 | -4.5 | 13.3 |
| c1ccc(-n2ncc3c(N4CCOCC4)nc(CN4CCOCC4)nc32)cc1 | 99.6 | 13.6 | > 100 | > 100 | > 100 | 94.3 | 13.6 | 13 | 99.7 | 47.6 | 13.3 |
| COc1ccccc1Nc1nc(C)nc2c1cnn2-c1ccccc1 |  | 13.5 |  |  |  |  | 13.3 | 13.4 |  |  | 13.6 |
| c1ccc(NCc2nc(Nc3ccccc3)c3cnn(-c4ccccc4)c3n2)cc1 | 100 | 13.3 | > 100 | > 100 | > 100 | 99.7 | 13.2 | 13.6 | 100 | 48.5 | 13 |
| Cc1nc(Nc2ccccc2)c2cnn(-c3ccccc3)c2n1 | 100 | 13.3 | > 100 | > 100 | > 100 | 100 | 13.4 | 13.6 | 100 | 65.6 | 13.6 |
| CC(C)c1nc(Nc2ccccc2)c2cnn(-c3ccccc3)c2n1 | 100 | 12.8 | 32 | > 100 | > 100 | 91.9 | 13.3 | 13.5 | 100 | 19.2 | 13.3 |
| Cc1nc(NCc2ccccc2)c2cnn(-c3ccccc3)c2n1 | 100 | 12.6 | > 100 | > 100 | > 100 | 100 | 13.1 | 13.3 | 100 | 45.5 | 12.7 |
| CCNCc1nc(NCC)c2cnn(-c3ccccc3)c2n1 | 100 | 13.3 | > 100 | > 100 | > 100 | 100 | 12.6 | 12.7 | 100 | 87.7 | 13.6 |
| CCc1nc(N2CCOCC2)c2cnn(-c3ccccc3)c2n1 | 85.5 | 13 | 28 | > 100 | > 100 | 65.9 | 13 | 13.3 | 100 | 30.9 | 13 |
| CCNc1nc(C)nc2c1cnn2-c1ccccc1 | 100 | 13.4 | 38.7 | > 100 | > 100 | 99.6 | 13.3 | 13.3 | 100 | 29.2 | 13.3 |
| CCN(CC)c1nc(C)nc2c1cnn2-c1ccccc1 | 100 | 13.6 | > 100 | > 100 | > 100 | 100 | 13.7 | 13.1 | 100 | 61.8 | 13.3 |
| c1ccc(-n2ncc3c(NCc4ccco4)ncnc32)cc1 | 97.5 | 12.8 | > 100 |  | > 100 | 92.3 | 13 | 13.6 | 100 | 51.7 | 13.6 |
| COc1cccc2c1C(=O)c1c(O)c3c(c(O)c1C2=O)C[C@@](O)(C(=O)CO)C[C@@H]3O[C@H]1C[C@H](N)[C@H](O)[C@H](C)O1 [DOXORUBICIN] | -62.5 |  | < 0.1 |  | < 0.1 | -64.2 |  |  | -24 | -70.7 |  |
| CC(C)Nc1ncnc2c1cnn2-c1ccccc1 |  | 13.3 |  |  |  |  | 13.6 | 13.3 |  |  | 13.6 |
| ClCc1nc(Cl)c2cnn(-c3ccccc3)c2n1 | 100 |  | 2.08 | > 100 | 33.2 | 90.9 |  |  | 100 | -59.3 |  |
